ChEMBL document CHEMBL1144916, “Identification of N,N-disubstituted phenylalanines as a novel class of inhibitors of hepatitis C NS5B polymerase” (J Med Chem, 2003)

target: RNA-directed RNA polymerase (Hepacivirus hominis, UniProt O39930); assay: Inhibitory activity against Hepatitis C RNA dependent RNA polymerase Nonstructural protein 5B (NS5B polymerase) expressed from baculovirus-infected Sf9 insect cells
Sequence (O39930 whole entry): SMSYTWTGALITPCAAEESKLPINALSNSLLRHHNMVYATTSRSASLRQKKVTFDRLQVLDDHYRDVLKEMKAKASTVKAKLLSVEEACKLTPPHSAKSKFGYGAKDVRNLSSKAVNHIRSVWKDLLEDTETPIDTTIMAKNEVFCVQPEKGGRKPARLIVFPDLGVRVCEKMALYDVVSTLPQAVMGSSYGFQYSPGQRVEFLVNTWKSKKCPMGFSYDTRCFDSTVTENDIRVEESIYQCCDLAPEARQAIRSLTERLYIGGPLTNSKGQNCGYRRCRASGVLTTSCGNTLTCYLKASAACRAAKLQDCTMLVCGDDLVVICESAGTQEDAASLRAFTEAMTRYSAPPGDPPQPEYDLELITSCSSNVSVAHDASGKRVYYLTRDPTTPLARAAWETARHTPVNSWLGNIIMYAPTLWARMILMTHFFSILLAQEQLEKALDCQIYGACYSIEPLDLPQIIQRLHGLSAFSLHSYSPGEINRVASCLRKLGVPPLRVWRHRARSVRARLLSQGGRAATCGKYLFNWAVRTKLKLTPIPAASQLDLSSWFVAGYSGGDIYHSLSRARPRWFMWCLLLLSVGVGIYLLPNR

O=C(O)[C@H](Cc1ccccc1)N(Cc1ccccc1Br)C(=O)c1ccc(Cl)cc1Cl and N#Cc1ccccc1CN(C(=O)c1ccc(Cl)cc1Cl)[C@@H](Cc1ccccc1)C(=O)O are within 1.5-fold of each other in IC50: 8 µM for the first, 6 µM for the second.

N#Cc1ccc(CN(C(=O)c2ccc(Cl)cc2Cl)[C@@H](Cc2ccccc2)C(=O)O)cc1 and O=C(O)[C@H](Cc1ccccc1)N(Cc1ccc(Br)cc1)C(=O)c1ccc(Cl)cc1Cl are within 1.5-fold of each other in IC50: 8 µM for the first, 9.1 µM for the second.

Compared with O=C(O)[C@H](Cc1ccccc1)N(Cc1ccc(-c2cc3ccccc3o2)s1)C(=O)c1ccc(Cl)cc1Cl, O=C(O)[C@H](Cc1ccccc1)N(Cc1ccc(Br)s1)C(=O)c1ccc(Cl)cc1Cl is 2.8-fold lower in IC50: 8.6 µM for the first, 3.1 µM for the second. The second is the more potent here.

Compared with O=C(O)[C@H](Cc1ccccc1)N(Cc1cccc(Cl)c1)C(=O)c1ccc(Cl)cc1Cl, O=C(O)[C@H](Cc1ccccc1)N(Cc1cccc(Br)c1)C(=O)c1ccc(Cl)cc1Cl is 2.5-fold higher in IC50: 1.4 µM for the first, 3.5 µM for the second.

First: N#Cc1cccc(CN(C(=O)c2ccc(Cl)cc2Cl)[C@@H](Cc2ccccc2)C(=O)O)c1
Second: O=C(O)[C@@H](Cc1ccccc1)N(Cc1cccc(Br)c1)C(=O)c1ccc(Cl)cc1Cl
The IC50 of the first is 11-fold lower: 0.8 µM for the first, 8.6 µM for the second. The first is the more potent here.

Going from O=C(O)[C@H](Cc1ccccc1)N(Cc1ccccc1)C(=O)c1ccc(Cl)cc1Cl to Cc1cccc(CN(C(=O)c2ccc(Cl)cc2Cl)[C@@H](Cc2ccccc2)C(=O)O)c1, the IC50 falls from 8 µM to 1.8 µM (4.4-fold). The second is the more potent here.

First: O=C(O)[C@H](Cc1ccccc1)N(Cc1cccnc1)C(=O)c1ccc(Cl)cc1Cl
Second: O=C(O)[C@H](Cc1ccccc1)N(Cc1ccc[n+]([O-])c1)C(=O)c1ccc(Cl)cc1Cl
The IC50 of the first is 4.1-fold higher: 11 µM for the first, 2.7 µM for the second.

First: O=C(O)[C@H](Cc1ccccc1)N(Cc1cccc([N+](=O)[O-])c1)C(=O)c1ccc(Cl)cc1Cl
Second: O=C(O)[C@H](Cc1ccccc1)N(Cc1cccc(F)c1)C(=O)c1ccc(Cl)cc1Cl
The IC50 of the first is 4.6-fold lower: 0.7 µM for the first, 3.2 µM for the second.

O=C(O)[C@H](Cc1ccccc1)N(Cc1cccc(Br)c1)C(=O)c1ccc(Cl)cc1 and O=C(O)[C@H](Cc1ccccc1)N(Cc1cccc(Br)c1)C(=O)c1ccccc1Cl are within 1.5-fold of each other in IC50: 11 µM for the first, 15 µM for the second.

First: COc1ccc(-c2ccc(Cl)cc2)c(COc2ccc(-c3nc4cc(C(=O)O)ccc4n3C3CCCCC3)cc2)c1
Second: O=C(O)[C@H](Cc1ccccc1)N(Cc1ccc(-c2nccs2)cc1)C(=O)c1ccc(Cl)cc1Cl
The IC50 of the first is 9.2-fold lower: 0.62 µM for the first, 5.7 µM for the second. The first is the more potent here.

Compared with O=C(O)CN(Cc1cccc(Br)c1)C(=O)c1ccc(Cl)cc1Cl, O=C(O)[C@H](Cc1ccccc1)N(Cc1cccc(C(F)(F)F)c1)C(=O)c1ccc(Cl)cc1Cl is 31-fold lower in IC50: 53 µM for the first, 1.7 µM for the second.
